{"source": "patent US20140148379A1", "about": "“Control of Unwanted Bacteria in Fermentation Systems with Bacteriocin” (priority 2012, published 2014)", "origin": "cited, not measured here", "system": "Staphylococcus aureus", "conditions": "nisin combined with the endolysin produced by Staphylococcal phage; contaminated milk"}
{"substance": "nisin", "values": [{"measurement": "effect of combination", "value": "strong synergistic effect"}]}
